Values quoted from earlier work in patent publication US8920373B2, “Reduced volume formulation of glatiramer acetate and methods of administration” (Teva Pharmaceutical Industries, Ltd., priority 2009, dated 2014).

Test system: RRMS subjects

## glatiramer acetate
human, in vivo
  Patients reporting Immediate Post-Injection Reaction (IPIR): 31%
  Proportion of patients reporting injection-site reactions at least once: 70%
Largest controlled study
  Reduction of relapse rate versus placebo: 32%
  Relapse rate: 1.34
Over 9 months of treatment
  Median cumulative number of Gd-enhancing lesions: 11 lesions
